pIC50: −log10 of the molar value. Like-named read-outs stand apart in the source and are kept apart here.
Target: T1, human cGAS (residues 161-522) (Homo sapiens, UniProt Q8N884)
T1 construct: Recombinantly expressed purified human cGAS (residues 161-522) was used at 25 nM; made in house
Test: cGAS Activity Assay—Malachite Green
Format: biochemical
Protocol: Compounds were tested for cGAS inhibition in a coupled enzymatic assay based on Phosphate detection by Malachite Green. Final assay conditions were 20 mM TRIS pH 7.5 (Applichem), 5 mM MgCl2 (Sigma) and 0.01% BSA (Sigma) supplemented with 80 μM ATP (Sigma), 80 μM GTP (Sigma) and 100 nM Interferon Stimulating DNA (ISD) (Microsynth).
1 μL of DMSO dilution series was transferred to 32.3 μL reaction buffer, mixed by pipetting up/down, spun for 1 minute at 3000 rpm and was visually inspected for precipitation. 5 μL of 3-fold enzyme stock solution were transferred to an empty 384-well Black/Clear Flat Bottom Polystyrene NBS (Corning) rows 3-24. Rows 1-2 were filled with assay buffer. Plates were spun 10 seconds at 1000 rpm (164×g). 5 μL of compound intermediate dilution was added and mixed by pipetting up/down to rows 3-24. Rows 1-2 were filled with 3.1% DMSO assay buffer. Plates were spun 10 seconds at 1000 rpm (164×g). 5 μL 3-fold Nucleotide/DNA mix was added to all wells to start the reaction. Plates were spun 10 seconds at 1000 rpm (164×g) and incubated for 4 hour at room temperature (RT) in the dark. 5 μL 4 U/mL PPase (Sigma) were added to all wells. Plates spun 10 seconds at 1000 rpm (164×g). 10 μL BioMol green Solution (Enzo Life Sciences) was added to all wells. Plates spun 10 seconds at 1000 rpm (164×g) and incubated 30 minutes at RT in the dark. Absorbance data was collected 620 nm on an EnVision Multilable Reader (Perkin Elmer) and the following measurement settings were used: excitation filter photometric was 620 nm; excitation from the top; measurement height was 1 mm; number of flashes was 30; number of flashes integrated was 1.
All plates are checked for abnormalities and outliers in the Blank Control (no protein, row 1) and the Neutral Control (no compound, row 2) are excluded using the 3*SD rule.
Table 5 provides IC50 values (μM) for cGAS inhibition obtained for particular examples of the present invention as measured by the above-described assay.

[1] = cGAS inhibition, 25 nM cGAS, 80 μM ATP, 80 μM GTP, 100 nM ISD, 4 hour at RT, Malachite Green phosphate detection, read-out: IC50 cGAS

T1 sequence (Q8N884 161-522): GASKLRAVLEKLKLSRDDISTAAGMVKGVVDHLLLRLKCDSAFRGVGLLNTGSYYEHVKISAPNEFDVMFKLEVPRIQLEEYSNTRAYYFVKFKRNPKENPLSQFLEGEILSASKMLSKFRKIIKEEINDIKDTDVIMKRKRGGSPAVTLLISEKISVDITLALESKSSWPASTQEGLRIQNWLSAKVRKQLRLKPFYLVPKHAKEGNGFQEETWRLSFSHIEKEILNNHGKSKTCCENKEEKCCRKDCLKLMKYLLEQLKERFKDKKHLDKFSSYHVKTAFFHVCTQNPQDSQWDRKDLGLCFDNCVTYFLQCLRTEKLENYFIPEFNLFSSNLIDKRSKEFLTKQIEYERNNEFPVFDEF

pIC50 [1] | pIC50 | Compound
5.54 |  | CCCc1cc(=O)n2nc(NCc3ccc(OC)cc3F)nc2[nH]1 [Example 6, 2-[(2-fluoro-4-methoxyphenyl)-methylamino]-5-propyl-4H-[1,2,4]triazolo[1,5-a]pyrimidin-7-one]
 | 5.57 | CC(C)c1ccc(CNc2nc3[nH]c(Cc4ccccc4)cc(=O)n3n2)cc1 [Example 73, 5-benzyl-2-[(4-isopropylphen-yl)methylamino]-4H-[1,2,4]-triazolo[1,5-a]pyrimidin-7-one]
5.52 |  | CCCc1cc(=O)n2nc(NCc3ccc4ncccc4c3)nc2[nH]1 [Example 22, 5-propyl-2-(6-quinolylmethyl-amino)-4H-[1,2,4]triazolo[1,5-a]pyrimidin-7-one]
5.94 |  | CCCc1cc(=O)n2nc(NCc3cc(N4CCOCC4)ncc3Cl)nc2[nH]1 [Example 96, 2-[(5-Chloro-2-morpholino-4-pyridyl)methylamino]-5-propyl-4H-[1,2,4]triazolo[1,5-a]pyrimidin-7-one]
 | 6.06 | CCCc1cc(=S)n2nc(NCc3cc(-c4ccn(C)n4)ccc3Cl)nc2[nH]1 [Example 40, 2-[[2-chloro-5-(1-methylpyrazol-3-yl)phenyl]methylamino]-5-propyl-4H-[1,2,4]triazolo[1,5-a]-pyrimidine-7-thione]
6.31 |  | COCCc1cc(=O)n2nc(NCc3cc(-c4ccn(C)n4)ccc3Cl)nc2[nH]1 [Example 51, 2-[[2-chloro-5-(1-methylpyrazol-3-yl)phenyl]methylamino]-5-(2-methoxyethyl)-4H-[1,2,4]-triazolo[1,5-a]pyrimidin-7-one]
 | 5.28 | CCCc1cc(=O)n2nc(NCc3cnc(N4CCN(C)CC4)cc3Cl)nc2[nH]1 [Example 100]
 | 6.18 | CCCc1cc(=O)n2nc(NCc3cc(-c4ccccn4)ccc3Cl)nc2[nH]1 [Example 29, 2-[[2-chloro-5-(2-pyridyl)phen-yl]methylamino]-5-propyl-4H-[1,2,4]triazolo[1,5-a]pyrimidin-7-one]
 | 5.11 | CCCc1cc(=O)n2nc(NCc3ccc(OCC(F)(F)F)cc3)nc2[nH]1 [Example 8, 5-propyl-2-[[4-(2,2,2-trifluoro-ethoxy)phenyl]methyllamino]-4H-[1,2,4]triazolo[1,5-a]-pyrimidin-7-one]
5.35 |  | O=c1cc(CC(F)(F)F)[nH]c2nc(NCc3ccc(Cl)cc3Cl)nn12 [Example 68, 2-[(2,4-dichlorophenyl)meth-ylamino]-5-(2,2,2-trifluoro-ethyl)-4H-[1,2,4]triazolo[1,5-a]pyrimidin-7-one]
5.42 |  | O=c1cc(C2CC2)[nH]c2nc(NCc3ccc(Cl)cc3Cl)nn12 [Example 59, 5-cyclopropyl-2-[(2,4-dichloro-phenyl)methylamino]-4H-[1,2,4]triazolo[1,5-a]pyrimidin-7-one]
6.18 |  | Cn1ccc(-c2ccc(Cl)c(CNc3nc4[nH]c(C(F)(F)F)cc(=O)n4n3)c2)n1 [Example 19, 2-[[2-chloro-5-(1-methylpyrazol-3-yl)phenyl]methylamino]-5-(trifluoromethyl)-4H-[1,2,4]-triazolo[1,5-a]pyrimidin-7-one]
5.56 |  | CCCc1cc(=O)n2nc(NCc3cc(-c4cccnn4)ccc3Cl)nc2[nH]1 [Example 85, 2-[(2-Chloro-5-pyridazin-3-yl-phenyl)methylamino]-5-propyl-4H-[1,2,4]triazolo[1,5-a]pyrimidin-7-one]
5.29 |  | CCc1cc(=O)n2nc(NCc3ccc(Cl)cc3Cl)nc2[nH]1 [Example 37, 2-[(2,4-dichlorophenyl)methyl-amino]-5-ethyl-4H-[1,2,4]-triazolo[1,5-a]pyrimidin-7-one]
5.75 |  | O=c1cc(Cc2ccccc2)[nH]c2nc(NCc3ccc(Cl)cc3Cl)nn12 [Example 71, 5-benzyl-2-[(2,4-dichlorophen-yl)methylamino]-4H-[1,2,4]-triazolo[1,5-a]pyrimidin-7-one]
5.94 |  | CCCc1cc(=O)n2nc(NCc3cc(-c4ccn(C)n4)ccc3C#N)nc2[nH]1 [Example 84, 4-(1-methylpyrazol-3-yl)-2-[[(7-oxo-5-propyl-4H-[1,2,4]-triazolo[1,5-a]pyrimidin-2-yl)amino]methyl]benzonitrile]

Source: US12509467B2 (Hoffmann-La Roche Inc., priority 2020, dated 2025)
